The results in this text go back to patent publication US7700648B2, “Ester compound and its use” (Sumitomo Chemical Company Limited, priority 2004, dated 2010).

This test concerns common mosquitoes (Culex pipiens pallens). The test can be described thus: Knock-down test on common mosquitoes by oil solution spray in a cubic chamber. It counts as in vivo. The conditions noted are these: 0.7 ml of 0.025% oil solution sprayed in 70 cm cubic chamber; ten female Culex pipiens pallens; counted for 10 minutes. The source says:
A solution of 0.025 part of the present compound (1) dissolved with 10 parts of dichloromethane was mixed with 89.975 parts of deodorized kerosene to give a 0.025% oil solution.
Ten female common mosquitoes (Culex pipiens pallens) were left in a cubic chamber (70 cm at side). Seven-tenths (0.7) ml of the 0.025% oil solution of the present compound (1) was sprayed with a spray gun at a pressure of 8.8×10^4 Pa from a small window on the side of the chamber. Then, the number of the knocked-down insects was counted at times for 10 minutes. The time (KT50) for knocking down half of the tested insects was calculated from the result.
For the comparison, 5-benzyl-3-furylmethyl 1R-trans-2,2-dimethyl-3-((E)-2-cyano-3-ethoxy-3-oxo-1-propenyl)cyclopropanecarboxylate (hereinafter, referred to as the comparison compound) was also subjected to the above mentioned test. The test was done twice for one compound.

As for `CCOC(=O)/C(C#N)=C/[C@@H]1[C@@H](C(=O)OCc2coc(Cc3ccccc3)c2)C1(C)C` (relative stereo) [The comparison compound, 5-benzyl-3-furylmethyl 1R-trans-2,2-dimethyl-3-((E)-2-cyano-3-ethoxy-3-oxo-1-propenyl)cyclopropanecarboxylate], the “KT50 (time for knocking down half of the tested insects)” value came out at 6.1 min.

On to `COC(=O)/C(C#N)=C/C1C(C(=O)OCc2coc(Cc3ccccc3)c2)C1(C)C` (stereo not drawn) [The present compound (1), 5-benzyl-3-furylmethyl 1R-trans-2,2-dimethyl-3-((E)-2-cyano-3-methoxy-3-oxo-1-propenyl)cyclopropan ecarboxylate], for which the “KT50 (time for knocking down half of the tested insects)” value was determined as 0.7 min.
